US5696112A, “Fused heterocyclic azepines as vasopressin antagonists” (American Cyanamid Company, priority 1995, dated 1997)
Like-named read-outs stand apart in the source and are kept apart here.

What was measured:
Vasopressin V1 = Vasopressin V1 Antagonist Activity in Conscious Rats (vasopressin vasopressor response); format: in vivo, rat; settings: for inhibition in vivo at 30 mg/kg / inhibition in vivo at 20 mg/kg / inhibition in vivo at 10 mg/kg: Rattus norvegicus, read-out: Vasopressin vasopressor response, Max. % Inhibition
Description: Vasopressin V1 Antagonist Activity in Conscious Rats Conscious rats are restrained in a supine position with elastic tape. The area at the base of the tail is locally anesthetization by subcutaneous infiltration with 2% procaine (0.2 ml). Using aseptic technique the ventral caudal tail artery is isolated and a cannula made of PE 10 and 20 (heat-fused) tubing is passed into the lower abdominal aorta. The cannula is secured, heparinized (1000 i.u./cc), sealed and the would closed with one or two stitches of Dexon 4-0. The caudal vein is also cannulated in the same manner for intravenous drug administration. The duration of the surgery is approximately 5 minutes. Additional local anesthesia (2% procaine or lidocaine) is provided as needed. The animals are placed in plastic restraining cages in an upright position. The cannula is attached to a […] pressure transducer and pulsatile blood pressure is recorded. […] Percentage of antagonism by the compound is calculated using the pre-drug vasopressin vasopressor response as 100%.

oxytocin receptors = molecular target: T1, oxytocin receptors (Rattus norvegicus, UniProt P70536); assay: Oxytocin Receptor Binding; design: species or system Sprague-Dawley rats; settings: for IC50: 1.0 nM [3H]oxytocin
T1 construct: The uteri are dissected out, cleaned of fat and connective tissues; from tissue; host or cells: uterus membranes of DES-treated female Sprague-Dawley rats
T1 sequence (P70536 1-388): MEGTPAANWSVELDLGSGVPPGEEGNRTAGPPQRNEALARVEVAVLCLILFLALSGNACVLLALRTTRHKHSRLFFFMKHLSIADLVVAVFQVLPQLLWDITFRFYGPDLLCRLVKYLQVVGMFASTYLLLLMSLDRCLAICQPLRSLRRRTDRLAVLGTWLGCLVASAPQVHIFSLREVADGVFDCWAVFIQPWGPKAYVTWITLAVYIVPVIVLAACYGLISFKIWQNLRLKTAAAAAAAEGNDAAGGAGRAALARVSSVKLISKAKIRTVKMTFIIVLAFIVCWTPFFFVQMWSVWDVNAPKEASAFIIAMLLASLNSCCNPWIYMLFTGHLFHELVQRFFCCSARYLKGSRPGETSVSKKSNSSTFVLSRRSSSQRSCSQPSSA
Outline: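 Membranes from uteri of DES-primed (0.3 mg/kg i.m., 18 h) female Sprague-Dawley rats incubated 60 min at 22 °C with 1.0 nM [3H]oxytocin in 50 mM Tris.HCl pH 7.4, 5 mM MgCl2 plus protease inhibitors; nonspecific binding with 1.0 uM oxytocin. IC50 from displacement after filtration.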

Vasopressin V2 = Vasopressin V2 Antagonist Activity in Conscious Hydrated Rats; format: in vivo, rat; settings: AVP 0.4 μg/kg i.p.
Description: Vasopressin V2 Antagonist Activity in conscious Hydrated Rats Conscious hydrated rats are treated with compounds under study from 0.1 to 100 mg/kg orally or vehicle. Two to four rats are used for each compound. One hour later, arginine vasopressin (AVP, antidiuretic hormone, ADH) dissolved in peanut oil is administered at 0.4 μg/kg intraperitoneally. Two rats in each test would not receive arginine vasopressin but only the vehicle (peanut oil) to serve as water-loading control. Twenty minutes later each rat is given 30 mL/kg of deionized water orally by gavage and is placed individually in a metabolic cage equipped with a funnel and a graduated glass cylinder to collect urine for four hours. Urine volume is measured and osmolality analyzed by use of a Fiske One-Ten osmometer (Fiske Assoc., Norwood, Mass. USA). Urinary sodium, potassium, and chloride are analyzed by use of ion-specific electrodes in a Beckman E3 (Electrolyte 3) Analyzer. In the following results, […] and […] osmolality relative to AVP-control indicates activity.

Row | SMILES | Time (Min) of Max. % Inhibition (Vasopressin V1; 30 mg/kg po) | inhibition in vivo at 30 mg/kg (Vasopressin V1; 30 mg/kg po) | IC50 (oxytocin receptors) | inhibition at 10 µM (oxytocin receptors) | Osmolality (Vasopressin V2; 10 mg/kg P.O.) | Urine Volume (Vasopressin V2; 10 mg/kg P.O.) | Time (Min) of Max. % Inhibition (Vasopressin V1; 20 mg/kg iv) | inhibition in vivo at 20 mg/kg (Vasopressin V1; 20 mg/kg iv) | Osmolality (Vasopressin V2; 30 mg/kg P.O.) | Urine Volume (Vasopressin V2; 30 mg/kg P.O.) | Time (Min) of Max. % Inhibition (Vasopressin V1; 10 mg/kg iv) | inhibition in vivo at 10 mg/kg (Vasopressin V1; 10 mg/kg iv) | inhibition at 1.25 µM (oxytocin receptors; 1.25 μM) | Time (Min) of Max. % Inhibition (Vasopressin V1; 30 mg/kg iv) | inhibition in vivo at 30 mg/kg (Vasopressin V1; 30 mg/kg iv)
1 | O=C(Nc1ccc(C(=O)N2CCCCc3sccc32)cc1)c1cc(Cl)ccc1Cl [Example 9, N-[4-[(5,6,7,8-Tetrahydro-4H-thieno[3,2-b]azepin-4-yl)carbonyl]phenyl]2,5-dichlorobenzamide] | 180 min | 17% | 5.2 µM | 60% | – | – | – | – | – | – | – | – | – | – | –
2 | Cc1c(F)cccc1C(=O)Nc1ccc(C(=O)N2CCCC(=O)c3sccc32)cc1 [Example 155, N-[4-[(5,6,7,8-Tetrahydro-8-oxo-4H-thieno[3,2-b]azepine-4-yl)carbonyl]phenyl]-3-fluoro-2-methylbenzamide] | – | – | – | 16% | 1053 mOsm/kg | 4.5 ml/4 hours | 60 min | 62% | – | – | – | – | – | – | –
3 | Cc1ccccc1C(=O)Nc1ccc(C(=O)N2CCCCc3sc(Cl)cc32)cc1 [Example 96, N-[4-[(2-Chloro-5,6,7,8-tetrahydro-4H-thieno[3,2-b]azepin-4-yl)carbonyl]phenyl]-2-methylbenzamide] | – | – | 0.27 µM | – | – | – | – | – | 465 mOsm/kg | 16.1 ml/4 hours | 90 min | 65% | 58% | – | –
4 | O=C(Nc1ccc(C(=O)N2CCCCc3sccc32)c(Cl)c1)c1ccc(F)cc1Cl [Example 183] | – | – | 0.6 µM | 86% | 512 mOsm/kg | 8.3 ml/4 hours | – | – | – | – | – | – | – | 120 min | 78%
5 | O=C(Nc1ccc(C(=O)N2CCCCc3sc(Cl)cc32)cc1)c1ccc(Cl)cc1Cl [Example 93, 2,4-Dichloro-N-[4-[(2-chloro-5,6,7,8-tetrahydro-4H-thieno[3,2-b]azepin-4-yl)carbonyl]phenyl]benzamide] | – | – | 1.8 µM | 83% | 1056 mOsm/kg | 7.6 ml/4 hours | 90 min | 77% | – | – | – | – | – | – | –
6 | Cc1c(F)cccc1C(=O)Nc1ccc(C(=O)N2CCCCc3sc(Cl)cc32)cc1 [Example 94, N-[4-[(2-Chloro-5,6,7,8-tetrahydro-4H-thieno[3,2-b]azepin-4-yl)carbonyl]phenyl]-3-fluoro-2-methylbenzamide] | – | – | 0.95 µM | 97% | 910 mOsm/kg | 8.8 ml/4 hours | 90 min | 74% | – | – | – | – | – | – | –
7 | O=C(Nc1ccc(C(=O)N2CCCCc3sccc32)c(Cl)c1)c1ccc(Cl)cc1Cl [Example 68, N-[4-[(5,6,7,8-Tetrahydro-4H-thieno[3,2-b]azepin-4-yl)carbonyl]-3-chlorophenyl]-2,4-dichlorobenzamide] | – | – | – | 55% | 647 mOsm/kg | 10.3 ml/4 hours | 120 min | 50% | – | – | – | – | – | – | –
8 | Cc1ccccc1C(=O)Nc1ccc(C(=O)N2CCCC(=O)c3sccc32)cc1 [Example 157, N-[4-[(5,6,7,8-Tetrahydro-8-oxo-4H-thieno[3,2-b]azepin-4-yl)carbonyl]-phenyl]-2-methylbenzamide] | – | – | – | 29% | 1070 mOsm/kg | 6.5 ml/4 hours | 60 min | 66% | – | – | – | – | – | – | –
9 | O=C(Nc1ccc(C(=O)N2CCCC(=O)c3sccc32)cc1)c1ccc(Cl)cc1Cl [Example 156, N-[4-[(5,6,7,8-Tetrahydro-8-oxo-4H-thieno[3,2-b]azepin-4-yl)carbonyl]-phenyl]-2,4-dichlorobenzamide] | – | – | – | 0% | 1266 mOsm/kg | 3.8 ml/4 hours | 240 min | 63% | – | – | – | – | – | – | –
10 | O=C(Nc1ccc(C(=O)N2CCCCc3sc(Cl)cc32)cc1)c1c(Cl)cccc1Cl [Example 95, N-[4-[(2-Chloro-5,6,7,8-tetrahydro-4H-thieno[3,2-b]azepin-4-yl)carbonyl]phenyl]-2,6-dichlorobenzamide] | – | – | 1.38 µM | 85% | 1122 mOsm/kg | 5 ml/4 hours | – | – | – | – | 30 min | 61% | – | – | –
11 | Cc1ccc(F)cc1C(=O)Nc1ccc(C(=O)N2CCCCc3sccc32)c(Cl)c1 [Example 70, N-[4-[(5,6,7,8-Tetrahydro-4H-thieno[3,2-b]azepin-4-yl)carbonyl]-3-chlorophenyl]-5-fluoro-2-methylbenzamide] | – | – | 0.51 µM | 97% | 1070 mOsm/kg | 4 ml/4 hours | 120 min | 67% | – | – | – | – | – | – | –
12 | Cc1ccccc1CC(=O)Nc1ccc(C(=O)N2CCCCc3sccc32)cc1 [Example 13, N-[4-[(5,6,7,8-Tetrahydro-4H-thieno[3,2-b]azepin-4-yl)carbonyl]phenyl]2-methylbenzeneacetamide] | – | – | 0.68 µM | 95% | – | – | – | – | 516 mOsm/kg | 9.5 ml/4 hours | 60 min | 80% | – | – | –
